From patent US20260242390A1, “TOTAL SYNTHESES OF PORTIMINE A AND ANALOGUES THEREOF AS SMALL MOLECULE MODULATORS OF NMD3” (priority 2023, published 2026)

Assays:
HeLa = experiment: Broad cell line profiling, HeLa; type: cell-based; conditions: Homo sapiens, Cervical Adenocarcinoma, read-out: PA IC50
Text: • A panel of human and mouse cancer cell types used to assess the breadth of PA activity, including multiple therapy resistant metastatic mesenchymal tumor cell lines and primary glioblastoma patient-derived metastatic stem/tumor initiating cell populations.

XPO1 = XPO1 protein level in Jurkat cells; type: cell-based, human
Procedure: FIG. 7. Portimine A targets NMD3 and prevents polysome formation. […] (A) Immunoblot showing reduced NMD3 levels in shNMD3 Jurkat and HeLa cells. […] Jurkat cells were treated with 12.5 nM of PA for 12 or 24 hours. Jurkat and HeLa cells were treated with 5 nM or 150 nM of PA for 24 hours. Data represents mean±SD of biologically replicated experiments (n=3). […] Cell lysates were fractionated by sucrose gradient (5-50%) and each fraction were analyzed by western blot. eIF6 levels increase in 60S subunit fraction and decrease in ribosome-free fractions after PA treatment. RPS6, a 40S and polysome subunits marker, is decreased in polysome fractions after PA treatment. Results are representative of three independent experiments. […] Relative protein levels in each fraction were normalized to the peak fraction of the indicated protein from the DMSO cells and plotted. Data represents mean±SD of biologically replicated experiments (n=3). Statistical analysis was performed using multiple unpaired Student t-test. * p≤0.05; ** p≤0.01; *** p≤0.005; **** p≤0.0001. Treatment condition: Jurkat (5 M per condition); Incubate cells (1 M/mL) with inhibitors for 6 hr, 12 hr and 24 hr, respectively.
• 1) Portimine A and its functional analogs show stereo-selective acute toxicity in cancer cells (FIG. 1). […] (B) Structure of portimine related analogs: phenyl-portimine A (Ph-PA, 36) and epi-portimine A (ePA, 38). […]

In the case of C=CC1=C[C@@H]2[C@@H]3O[C@]4(CC[C@H](O4)C(C)C[C@@H](O)C3=O)CC(O)C3=NCC[C@@]32CC1 (some centres unmarked) [PA, portimine A], the IC50 (HeLa) is reported as 1.6 nM and the XPO1 levels (XPO1) is reported as “unaffected”.
